Results from patent US20060233738A1, “Composition for promoting production of type 1 collagen and/or elastin” (priority 2003, published 2006).

What was measured:
Type in all cases: cell-based
type I collagen [1] = experiment: Promotion of type I collagen production in a three-dimensional human skin model (TESTSKIN LSE-high); settings: concentration 0.05% in dipropylene glycol, 2 x 24 hours
Source text: (§1) Three-dimensional human skin models are widely used in safety evaluations and effectiveness evaluations as pseudo human skins. In this evaluation, TESTSKIN (LSE-high) (manufactured by Toyobo) was used as a three-dimensional human skin model, and cultured in accordance with the protocol specified in the attached document. Silybum marianum extract containing 70% silymarin (manufactured by Indina), soybean lecithin (manufactured by Wako Pure Chemical Industries) and retinoic acid (all-trans-retinoic acid manufactured by Wako Pure Chemical Industries) were dissolved to respective concentrations in dipropylene glycol (manufactured by Wako Pure Chemical Industries). […]
(§2) Next, 60 μl of each tested substance was added to tissues in an assay ring and the tissues were cultured for 24 hours. […] Protein in the sample was determined using a DC protein assay kit (manufactured by Bio-Rad Laboratories) based on the Lowry method (Non-patent Literature 11), and 20 mM Tris-HCl (pH 7.5) was added to achieve 2 μg/μl. […]
The obtained sample was used to evaluate the property to promote type I collagen production using the western blotting method. […] The obtained substance was washed, and then detected using ECL plus western blotting detection reagent (manufactured by Amersham Biosciences). […]

elastin [2] = experiment: Promotion of elastin production in a three-dimensional human skin model (TESTSKIN LSE-high); settings: concentration 0.05% in dipropylene glycol, 2 x 24 hours
Source text: as §1, §2
In the same manner as described in the aforementioned evaluation of the property to promote type I collagen production in a three-dimensional human skin model, the property to promote elastin production was evaluated using a three-dimensional human skin model.

type I collagen [3] = experiment: Promotion of type I collagen production in normal human skin fibroblast cells (western blotting, image analysis); settings: NFB cells, 24 hours
Experimental: (§3) Each compound was dissolved in DMSO to produce a stock solution, and an appropriate amount of each stock solution was added to a culture solution and applied to cells. By following the same procedure, a stock solution was prepared by dissolving silymarin (silymarin group manufactured by Sigma-Aldrich) in the aforementioned DMSO, and an appropriate amount of the stock solution was added to a culture solution to check the effect of adding silymarin.
(§4) Normal human skin fibroblast cells (hereinafter referred to as “NFB”), provided as CCD1059 (purchased from Dainippon Pharmaceutical), were cultured in a skin fibroblast cell culture medium (FGM manufactured by Sanko Junyaku) at 37° C. in a 5% CO2 incubator. FGM was prepared by adding a human skin fibroblast cell growth factor (1 μg/ml), insulin ([…]), gentamycin (50 μg/ml) and amphotericin B (50 μg/ml) to a base fibroblast cell culture medium. This test used cells whose passage number was 3 to 7. […]
(§5) Protein in the sample was separated by SDS-PAGE and transferred to a nitrocellulose membrane. […] The obtained substance was washed, and then detected using ECL plus western blotting detection reagent (manufactured by Amersham Biosciences). The detected band was scanned using an image scanner (manufactured by Amersham Biosciences) and analyzed using image master software to produce numerical data.

elastin [4] = experiment: Promotion of elastin production in normal human skin fibroblast cells (western blotting, image analysis); settings: NFB cells, 24 hours
Experimental: as §3, §4, §5

SMILES: CC1=C(/C=C/C(C)=C/C=C/C(C)=C/C(=O)O)C(C)(C)CCC1 [Retinoic acid, all-trans-retinoic acid]
- Relative expression level (full-length type I collagen) (type I collagen [1]): 2.0
- Relative expression level (full-length elastin) (elastin [2]): 3.3
- Ratio to untreated control (full-length type I collagen) (type I collagen [3]; treated concentration 250 nM): 2.0
- Ratio to untreated control (full-length type I collagen) (type I collagen [3]; treated concentration 500 nM): 1.4
- Ratio to untreated control (full-length elastin) (elastin [4]; treated concentration 250 nM): 2.8
- Ratio to untreated control (full-length elastin) (elastin [4]; treated concentration 500 nM): 1.4
